In patent publication US12304898B2, “Quinolyl-containing compound and pharmaceutical composition, and use thereof” (PrimeGene (Beijing) Co., Ltd., priority 2019, dated 2025):

Tests used:
HDAC6 = HDAC6 (Homo sapiens (Human), UniProt Q9UBN7); experiment: HDAC6 fluorescence analysis, inhibition of HDAC6 activity; type: biochemical; conditions: HDAC6 0.3 nM solution, substrate 15 μM, fluorescence readout; read-out: IC50, inhibitory effect on HDAC6
Protocol: HDAC6 fluorescence analysis method was used to detect the inhibitory effect of the compounds on the activity of HDAC6. The specific operation is as follows:
Prepare a 10 mM stock solution of a compound with DMSO. Take 10 μl of stock solution and dilute with 90 μl DMSO to become a 1 mM working solution. […] Add 3 μl of each concentration to 197 μl reaction buffer (20 mM Hepes pH 8.0, 137 mM NaCl, 2.7 mM KCl, 1 mM MgCl2, 0.05% BSA, 0.5 mM TCEP), mix well and add 10 μl to a 384-well plate. In the final reaction system, the concentrations of the compound were 10 μM to 0.51 nM. Duplicate, and add 10 μl 3XHDAC solution (BPS, Cat. 50006, 0.3 nM) to each well, followed by incubating at 23° C. for 20 minutes. Then, add 3× substrate solution (Anaspec, Cat. 61855, 15 μM), centrifuge to mix, and incubate at 23° C. for 90 minutes. Add 30 μl trypsin/SAHA mixture (20 mM Hepes pH 8.0, 100 mM NaCl, 10 mM SAHA, 0.01 mg/ml trypsin), incubate at 23° C. for 60 minutes to terminate the reaction. Finally, read fluorescence data by Envision (390 nm excitation, 460 nm emission). […] Finally, analyze the data by XLfit5 software and calculate the IC50 value of the compound. Vorinostat (SAHA) was a positive reference compound.

[1] = Pharmacokinetic experiment in rats after intragastric administration; type: in vivo; conditions: rat, po, female SD rats, 10 mg/kg, plasma
Protocol: The female SD rats were divided into groups, 3 rats in each group, and the example compounds 10, 12, 24, 57, 61, 89, 90, 93, 94, 96 (10 mg/kg) were administered by intragastric administration. Fasting overnight before administration, and the fasting time was from 10 hours before administration to 4 hours after administration. Blood was collected at 0.25, 0.5, 1, 2, 4, 8 and 24 hours after administration. Small animal anesthesia machine was used for isoflurane anesthesia. After that, 0.3 mL of whole blood was collected from the fundus venous plexus and placed in a heparin anticoagulation tube. The sample was centrifuged at 4° C., 4000 rpm, for 5 minutes, and the plasma was transferred to a centrifuge tube, and stored at −80° C. until analysis. The plasma sample was extracted by protein precipitation method, and the extract was processed and analyzed by LC/MS/MS.

VEGFR2 (KDR) = VEGFR2 (KDR) (Homo sapiens (Human), UniProt P35968); experiment: VEGFR2 (KDR) mobility shift assay; type: biochemical; conditions: VEGFR2 0.5 nM, ATP 95 μM, read-out: IC50, inhibitory effect on kinase VEGFR2
Protocol: Detect compounds on VEGFR2 (KDR) by mobility shift assay. The initial test concentration of a compound was 1000 nM, 3 times dilution, 10 concentrations, and detection in duplicate. Nintedanib (Selleckchem, Cat. S1010) was used as the positive control compound. The operation method was briefly described as follows: kinase VEGFR2 (Carna, Cat. 08-191) at the final concentration of 0.5 nM and the test compound were mixed in the Optiplate-384F well plate and incubated for 10 minutes at room temperature. Then, ATP at a final concentration of 95 μM and 3 μM Kinase substrate 22 (Gill Biochemical (glbiochem), Cat. 112393) were added. After mixing, react at room temperature for 30 minutes. Add stop detection solution to terminate the reaction and read the conversion rate with Caliper EZ ReaderlI.
Wherein, Conversion %_sample refers to the conversion rate reading of the sample; Conversion %_min: the average value of the negative control wells, which represents the conversion rate readings of the wells without enzyme activity; Conversion %_max: the average value of the positive control wells, represents the conversion rate readings of the wells without compound inhibition.
Fitting the dose-response curve: Take the log of the concentration as the X-axis, and the percentage of inhibition rate as the Y-axis. The dose response curve was fitted by the analysis software GraphPad Prism 5 with log(inhibitor) vs. response—Variable slope to obtain the inhibitory activity (IC50) of each compound.

VEGFR2 (KDR), sequence (P35968 790-1356): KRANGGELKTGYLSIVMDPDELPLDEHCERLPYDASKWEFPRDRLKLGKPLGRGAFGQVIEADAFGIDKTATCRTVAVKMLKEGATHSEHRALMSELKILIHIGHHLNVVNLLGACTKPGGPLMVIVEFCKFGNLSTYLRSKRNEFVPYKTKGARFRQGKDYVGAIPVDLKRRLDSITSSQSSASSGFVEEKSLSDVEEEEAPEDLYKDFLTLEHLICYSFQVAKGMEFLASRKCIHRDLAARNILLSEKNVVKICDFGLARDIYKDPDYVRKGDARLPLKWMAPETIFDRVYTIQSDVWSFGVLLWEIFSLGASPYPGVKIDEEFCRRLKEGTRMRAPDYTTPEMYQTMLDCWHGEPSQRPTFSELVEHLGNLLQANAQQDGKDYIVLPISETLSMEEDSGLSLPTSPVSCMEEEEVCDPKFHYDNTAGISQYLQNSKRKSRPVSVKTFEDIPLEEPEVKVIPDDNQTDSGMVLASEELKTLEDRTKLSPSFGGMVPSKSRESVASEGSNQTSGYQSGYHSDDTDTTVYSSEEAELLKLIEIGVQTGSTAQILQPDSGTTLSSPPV
HDAC6, sequence (Q9UBN7 whole entry): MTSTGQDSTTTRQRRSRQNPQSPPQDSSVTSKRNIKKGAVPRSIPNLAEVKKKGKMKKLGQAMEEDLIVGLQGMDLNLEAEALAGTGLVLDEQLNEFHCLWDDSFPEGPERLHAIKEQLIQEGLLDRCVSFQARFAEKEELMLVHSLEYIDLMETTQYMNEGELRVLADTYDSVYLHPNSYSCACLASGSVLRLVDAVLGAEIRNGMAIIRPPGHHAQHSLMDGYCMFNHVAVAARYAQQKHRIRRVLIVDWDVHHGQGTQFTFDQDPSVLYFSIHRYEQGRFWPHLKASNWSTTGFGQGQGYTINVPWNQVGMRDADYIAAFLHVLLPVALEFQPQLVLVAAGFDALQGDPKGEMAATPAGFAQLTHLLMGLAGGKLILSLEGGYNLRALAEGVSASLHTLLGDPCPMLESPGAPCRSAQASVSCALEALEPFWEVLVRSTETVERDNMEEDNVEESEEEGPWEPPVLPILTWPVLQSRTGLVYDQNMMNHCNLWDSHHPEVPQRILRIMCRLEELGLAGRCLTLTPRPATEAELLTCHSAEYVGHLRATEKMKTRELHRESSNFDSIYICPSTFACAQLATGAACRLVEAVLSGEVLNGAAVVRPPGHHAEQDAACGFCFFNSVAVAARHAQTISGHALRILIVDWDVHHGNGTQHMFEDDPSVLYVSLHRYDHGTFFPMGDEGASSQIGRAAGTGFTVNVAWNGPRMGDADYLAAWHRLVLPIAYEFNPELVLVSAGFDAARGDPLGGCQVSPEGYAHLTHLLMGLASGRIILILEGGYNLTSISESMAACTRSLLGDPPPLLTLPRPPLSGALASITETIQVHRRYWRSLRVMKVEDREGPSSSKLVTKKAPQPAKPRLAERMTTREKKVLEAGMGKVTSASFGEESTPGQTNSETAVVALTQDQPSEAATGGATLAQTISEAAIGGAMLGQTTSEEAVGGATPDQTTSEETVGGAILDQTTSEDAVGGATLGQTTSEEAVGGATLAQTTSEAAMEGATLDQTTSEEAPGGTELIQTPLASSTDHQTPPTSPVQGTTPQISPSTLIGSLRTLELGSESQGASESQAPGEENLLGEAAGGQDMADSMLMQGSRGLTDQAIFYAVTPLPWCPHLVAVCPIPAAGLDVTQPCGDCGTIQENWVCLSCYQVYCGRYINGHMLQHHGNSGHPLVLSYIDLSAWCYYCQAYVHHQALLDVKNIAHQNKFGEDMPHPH

SMILES	IC50 (HDAC6) [nM]	AUC(0-inf) [1] [ng·h/mL]	Cmax [1] [ng/mL]	Tmax [1] [h]	half-life [1] [h]	IC50 (VEGFR2 (KDR)) [nM]
COc1cc2nccc(Oc3ccc(NC(=O)C4(C(=O)Nc5ccc(F)cc5)CC4)cc3)c2cc1OC [Cabozantinib, reference compound]	> 10000					
COc1cc2c(Oc3ccc(NC(=O)C4(C(=O)Nc5ccc(F)cc5)CC4)cc3F)ccnc2cc1OCCCCCCCSC(C)=O [Example 12, S-(7-((4-(2-fluoro-4-(1-((4-fluorophenyl)aminoformyl)cyclopropane-1-carboxamido)phenoxy)-6-methoxyquinolin-7-yl)oxy)heptyl)-acetylthioester]	67.8	1870	946	1	3	
COc1cc2c(Oc3ccc(NC(=O)C4(C(=O)Nc5ccc(F)cc5)CC4)cc3F)ccnc2cc1OCCCCCCCS [Example 13, N-(3-fluoro-4-((7-(7-mercaptoheptyloxy)-6-methoxyquinolin-4-yl)oxy)phenyl)-N-(4-fluorophenyl) cyclopropane-1,1-diformamide]	18					
COc1cc2c(Oc3ccc(NC(=O)C4(C(=O)Nc5ccc(F)cc5)CC4)cc3F)ccnc2cc1OC/C=C/CCCCS [Example 25, (E)-N-(3-fluoro-4-((7-((7-mercaptoheptyl-2-en-1-yl)oxy)-6-methoxyquinolin-4-yl)oxy)phenyl)-N-(4-fluorophenyl)cyclopropane-1,1-diformamide]	34.8					79
COc1cc2c(Oc3ccc(NC(=O)C4(C(=O)Nc5ccc(F)cc5)CC4)cc3F)ccnc2cc1OCCCCNC(=O)CS [Example 62]	16.3					17

The next lines start with the values.

IC50 (HDAC6) [nM]	AUC(0-inf) [1] [ng·h/mL]	Cmax [1] [ng/mL]	Tmax [1] [h]	half-life [1] [h]	IC50 (VEGFR2 (KDR)) [nM]	SMILES
28.8					51	COc1cc2c(Oc3ccc(NC(=O)C4(C(=O)Nc5ccc(F)cc5)CC4)cc3F)ccnc2cc1OCCCCCCNC(=O)CS [Example 64]
8.94					0.96	CC(=O)SCC(=O)NCCCCCOc1cc2nccc(Oc3ccc(NC(=O)NC4CC4)c(Cl)c3)c2cc1C(N)=O [Example 69, S-(2-((5-((6-carbamoyl-4-(3-chloro-4-(3-cyclopropylurea)phenoxy)quinolin-7-yl)oxy)pentyl)amino)-2-oxo-ethyl)thioacetate]
27					4.6	CC(=O)SCC(=O)NCCCCCOc1cc2nccc(Oc3ccc(NC(=O)C4(C(=O)Nc5ccc(F)cc5)CC4)cc3F)c2cc1C(N)=O [Example 71, S-(2-((5-((6-carbamoyl-4-(2-fluoro-4-(1-((4-fluorophenyl)carbamoyl)cyclopropane-1-methylamido)phenoxy)quinolin-7-yl)oxy)pentyl)amino)-2-oxo-ethyl)thioacetate]
